From patent US20070142392A1, “Uses of rifamycins” (ActivBiotics, Inc., priority 2005, published 2007)
≈ marks a conversion by molar mass, not a printed value.

Assays:
Assay type in all cases: cell-based
E. faecalis = assay: MIC values, E. faecalis (Tables 1-4)
E. coli = assay: MIC values, E. coli (Tables 1-4)
S. aureus = assay: MIC values, S. aureus (Tables 1-4)
H. flu = tested on: H. flu
S. pneumo. = assay: MIC values, S. pneumo. (Tables 1-4)

Row | SMILES | MIC E. faecalis (E. faecalis) | MIC E. coli (E. coli) | MIC S. aureus (S. aureus) | MIC H. flu (H. flu) | MIC S. pneumo. (S. pneumo.)
1 | COc1c(N2CCCC2)cc(C)c2nc3c4c5c6c(C)c(O)c4c(=O)c(c-3oc12)NC(=O)/C(C)=C\C=C\[C@H](C)[C@H](O)[C@@H](C)[C@@H](O)[C@@H](C)[C@H](O)[C@H](C)[C@@H](OC)/C=C/O[C@@](C)(O6)C5=O [Compound 121] | 2 µg/mL (≈ 2.34 µM) | 8 µg/mL (≈ 9.35 µM) | 0.06 µg/mL (≈ 0.0701 µM) | 0.12 µg/mL (≈ 0.14 µM) | 0.03 µg/mL (≈ 0.035 µM)
2 | CO[C@H]1/C=C/O[C@@]2(C)Oc3c(C)c(O)c4c(=O)c(c5oc6cc(N7CCCC7)c(F)cc6nc-5c4c3C2=O)NC(=O)/C(C)=C\C=C\[C@H](C)[C@H](O)[C@@H](C)[C@@H](O)[C@@H](C)[C@H](O)[C@@H]1C [Compound 123] | 1 µg/mL (≈ 1.2 µM) | 8 µg/mL (≈ 9.64 µM) | 0.03 µg/mL (≈ 0.0361 µM) | 0.12 µg/mL (≈ 0.145 µM) | 0.06 µg/mL (≈ 0.0723 µM)
3 | CO[C@H]1/C=C/O[C@@]2(C)Oc3c(C)c(O)c4c(=O)c(c5oc6cc(N7CCCN(C)CC7)cc(O)c6nc-5c4c3C2=O)NC(=O)/C(C)=C\C=C\[C@H](C)[C@H](O)[C@@H](C)[C@@H](O)[C@@H](C)[C@H](O)[C@@H]1C [Compound 124] | 0.03 µg/mL (≈ 0.0344 µM) | 4 µg/mL (≈ 4.59 µM) | 0.004 µg/mL (≈ 0.00459 µM) | 0.25 µg/mL (≈ 0.287 µM) | 0.00012 µg/mL (≈ 0.000138 µM)
4 | CO[C@H]1/C=C/O[C@@]2(C)Oc3c(C)c(O)c4c(=O)c(c5sc6cc(N7CCCN(C)CC7)ccc6nc-5c4c3C2=O)NC(=O)/C(C)=C\C=C\[C@H](C)[C@H](O)[C@@H](C)[C@@H](O)[C@@H](C)[C@H](O)[C@@H]1C [Compound 125] | 0.25 µg/mL (≈ 0.287 µM) | 2 µg/mL (≈ 2.3 µM) | 0.002 µg/mL (≈ 0.0023 µM) | 0.12 µg/mL (≈ 0.138 µM) | 0.00025 µg/mL (≈ 0.000287 µM)
5 | CO[C@H]1/C=C/O[C@@]2(C)Oc3c(C)c(O)c4c(=O)c(c5oc6c(C)c(N7CCC7)cc(C)c6nc-5c4c3C2=O)NC(=O)/C(C)=C\C=C\[C@H](C)[C@H](O)[C@@H](C)[C@@H](O)[C@@H](C)[C@H](O)[C@@H]1C [Compound 126] | 1 µg/mL (≈ 1.21 µM) | 8 µg/mL (≈ 9.69 µM) | 0.03 µg/mL (≈ 0.0363 µM) | 0.25 µg/mL (≈ 0.303 µM) | 0.004 µg/mL (≈ 0.00484 µM)
6 | CO[C@H]1/C=C/O[C@@]2(C)Oc3c(C)c(O)c4c(=O)c(c5oc6cc(N(C)CC(C)C)cc(O)c6nc-5c4c3C2=O)NC(=O)/C(C)=C\C=C\[C@H](C)[C@H](O)[C@@H](C)[C@@H](O)[C@@H](C)[C@H](O)[C@@H]1C [Compound 128] | 0.5 µg/mL (≈ 0.592 µM) | >8 µg/mL | 0.015 µg/mL (≈ 0.0178 µM) | 0.5 µg/mL (≈ 0.592 µM) | 0.002 µg/mL (≈ 0.00237 µM)
7 | CO[C@H]1/C=C/O[C@@]2(C)Oc3c(C)c(O)c4c(=O)c(c5oc6cc(N(C)C7CCN(C)CC7)cc(O)c6nc-5c4c3C2=O)NC(=O)/C(C)=C\C=C\[C@H](C)[C@H](O)[C@@H](C)[C@@H](O)[C@@H](C)[C@H](O)[C@@H]1C [Compound 129] | 0.5 µg/mL (≈ 0.565 µM) | 4 µg/mL (≈ 4.52 µM) | 0.004 µg/mL (≈ 0.00452 µM) | 0.25 µg/mL (≈ 0.282 µM) | 0.00025 µg/mL (≈ 0.000282 µM)
8 | CO[C@H]1/C=C/O[C@@]2(C)Oc3c(C)c(O)c4c(=O)c(c5oc6cc(N(C)CCC#N)ccc6nc-5c4c3C2=O)NC(=O)/C(C)=C\C=C\[C@H](C)[C@H](O)[C@@H](C)[C@@H](O)[C@@H](C)[C@H](O)[C@@H]1C [Compound 130] | 0.5 µg/mL (≈ 0.606 µM) | 8 µg/mL (≈ 9.7 µM) | 0.06 µg/mL (≈ 0.0727 µM) | 0.12 µg/mL (≈ 0.145 µM) | 0.008 µg/mL (≈ 0.0097 µM)
9 | CO[C@H]1/C=C/O[C@@]2(C)Oc3c(C)c(O)c4c(=O)c(c5oc6cc(N7CCOCC7)cc(O)c6nc-5c4c3C2=O)NC(=O)/C(C)=C\C=C\[C@H](C)[C@H](O)[C@@H](C)[C@@H](O)[C@@H](C)[C@H](O)[C@@H]1C [Compound 131] | 0.06 µg/mL (≈ 0.0711 µM) | >8 µg/mL | 0.004 µg/mL (≈ 0.00474 µM) | 0.12 µg/mL (≈ 0.142 µM) | 0.00025 µg/mL (≈ 0.000296 µM)
10 | CO[C@H]1/C=C/O[C@@]2(C)Oc3c(C)c(O)c4c(=O)c(c5sc6cc(N7CCOCC7)ccc6nc-5c4c3C2=O)NC(=O)/C(C)=C\C=C\[C@H](C)[C@H](O)[C@@H](C)[C@@H](O)[C@@H](C)[C@H](O)[C@@H]1C [Compound 132] | 0.5 µg/mL (≈ 0.592 µM) | 4 µg/mL (≈ 4.74 µM) | 0.015 µg/mL (≈ 0.0178 µM) | 0.06 µg/mL (≈ 0.0711 µM) | 0.001 µg/mL (≈ 0.00118 µM)
11 | CO[C@H]1/C=C/O[C@@]2(C)Oc3c(C)c(O)c4c(=O)c(c5n(C)c6ccccc6nc-5c4c3C2=O)NC(=O)/C(C)=C\C=C\[C@H](C)[C@H](O)[C@@H](C)[C@@H](O)[C@@H](C)[C@H](O)[C@@H]1C [Compound 134] | 2 µg/mL (≈ 2.65 µM) | 8 µg/mL (≈ 10.6 µM) | 0.5 µg/mL (≈ 0.661 µM) | 2 µg/mL (≈ 2.65 µM) | 0.5 µg/mL (≈ 0.661 µM)
12 | CO[C@H]1/C=C/O[C@@]2(C)Oc3c(C)c(O)c4c(=O)c(c5oc6cccc(O)c6nc-5c4c3C2=O)NC(=O)/C(C)=C\C=C\[C@H](C)[C@H](O)[C@@H](C)[C@@H](O)[C@@H](C)[C@H](O)[C@@H]1C [Compound 136] | 0.12 µg/mL (≈ 0.158 µM) | 8 µg/mL (≈ 10.5 µM) | 0.004 µg/mL (≈ 0.00527 µM) | 0.25 µg/mL (≈ 0.329 µM) | 0.002 µg/mL (≈ 0.00264 µM)
13 | CO[C@H]1/C=C/O[C@@]2(C)Oc3c(C)c(O)c4c(=O)c(c5oc6ccc(F)cc6nc-5c4c3C2=O)NC(=O)/C(C)=C\C=C\[C@H](C)[C@H](O)[C@@H](C)[C@@H](O)[C@@H](C)[C@H](O)[C@@H]1C [Compound 138] | 0.5 µg/mL (≈ 0.657 µM) | >8 µg/mL | 0.03 µg/mL (≈ 0.0394 µM) | 0.5 µg/mL (≈ 0.657 µM) | 0.06 µg/mL (≈ 0.0789 µM)
14 | CO[C@H]1/C=C/O[C@@]2(C)Oc3c(C)c(O)c4c(=O)c(c5oc6cc(F)ccc6nc-5c4c3C2=O)NC(=O)/C(C)=C\C=C\[C@H](C)[C@H](O)[C@@H](C)[C@@H](O)[C@@H](C)[C@H](O)[C@@H]1C [Compound 139] | 0.5 µg/mL (≈ 0.657 µM) | >8 µg/mL | 0.03 µg/mL (≈ 0.0394 µM) | 0.5 µg/mL (≈ 0.657 µM) | 0.03 µg/mL (≈ 0.0394 µM)
15 | COC1C=COC2(C)Oc3c(C)c(O)c4c(=O)c(c5oc6cc(N7CC8CCCNC8C7)cc(O)c6nc-5c4c3C2=O)NC(=O)C(C)=CC=CC(C)C(O)C(C)C(O)C(C)C(OC(C)=O)C1C (stereo not shown) [Compound 141] | 0.5 µg/mL (≈ 0.541 µM) | 8 µg/mL (≈ 8.65 µM) | 0.015 µg/mL (≈ 0.0162 µM) | 2 µg/mL (≈ 2.16 µM) | 0.00025 µg/mL (≈ 0.00027 µM)
16 | COC1C=COC2(C)Oc3c(C)c(O)c4c(=O)c(c5oc6cc(N7CC8CCCNC8C7)cc(O)c6nc-5c4c3C2=O)NC(=O)C(C)=CC=CC(C)C(O)C(C)C(O)C(C)C(O)C1C (stereo not shown) [Compound 142] | 4 µg/mL (≈ 4.53 µM) | >8 µg/mL | 0.12 µg/mL (≈ 0.136 µM) | 4 µg/mL (≈ 4.53 µM) | 0.004 µg/mL (≈ 0.00453 µM)
17 | COC1C=COC2(C)Oc3c(C)c(O)c4c(=O)c(c5oc6cc(N7CC8CCCNC8C7)cc(O)c6nc-5c4c3C2=O)NC(=O)C(C)=CC=CC(C)C(O)C(C)C(O)C(C)C(OC(C)=O)C1C (stereo not shown) [Compound 143] | 0.12 µg/mL (≈ 0.13 µM) | 8 µg/mL (≈ 8.65 µM) | 0.004 µg/mL (≈ 0.00432 µM) | 0.25 µg/mL (≈ 0.27 µM) | 0.00025 µg/mL (≈ 0.00027 µM)
18 | COC1C=COC2(C)Oc3c(C)c(O)c4c(=O)c(c5oc6cc(N7CC8CCCNC8C7)cc(O)c6nc-5c4c3C2=O)NC(=O)C(C)=CC=CC(C)C(O)C(C)C(O)C(C)C(O)C1C (stereo not shown) [Compound 144] | 0.25 µg/mL (≈ 0.283 µM) | >8 µg/mL | 0.03 µg/mL (≈ 0.034 µM) | 1 µg/mL (≈ 1.13 µM) | 0.002 µg/mL (≈ 0.00226 µM)
19 | CO[C@H]1/C=C/O[C@@]2(C)Oc3c(C)c(O)c4c(=O)c(c5oc6cc(N7CC8CCC(C7)N8)cc(O)c6nc-5c4c3C2=O)NC(=O)/C(C)=C\C=C\[C@H](C)[C@H](O)[C@@H](C)[C@@H](O)[C@@H](C)[C@H](OC(C)=O)[C@@H]1C [Compound 145] | 1 µg/mL (≈ 1.1 µM) | >8 µg/mL | 0.008 µg/mL (≈ 0.00878 µM) | 2 µg/mL (≈ 2.2 µM) | 0.00012 µg/mL (≈ 0.000132 µM)
20 | CO[C@H]1/C=C/O[C@@]2(C)Oc3c(C)c(O)c4c(=O)c(c5oc6cc(N7CC8CCC(C7)N8)cc(O)c6nc-5c4c3C2=O)NC(=O)/C(C)=C\C=C\[C@H](C)[C@H](O)[C@@H](C)[C@@H](O)[C@@H](C)[C@H](O)[C@@H]1C [Compound 146] | 0.12 µg/mL (≈ 0.138 µM) | 4 µg/mL (≈ 4.6 µM) | 0.015 µg/mL (≈ 0.0173 µM) | 0.25 µg/mL (≈ 0.288 µM) | 0.001 µg/mL (≈ 0.00115 µM)
21 | CCOC(=O)N1CCCC2CN(c3cc(O)c4nc5c6c7c8c(C)c(O)c6c(=O)c(c-5oc4c3)NC(=O)C(C)=CC=CC(C)C(O)C(C)C(O)C(C)C(OC(C)=O)C(C)C(OC)C=COC(C)(O8)C7=O)CC21 (stereo not shown) [Compound 147] | 1 µg/mL (≈ 1 µM) | >8 µg/mL | 0.06 µg/mL (≈ 0.0602 µM) | 0.5 µg/mL (≈ 0.501 µM) | 0.008 µg/mL (≈ 0.00802 µM)
22 | CCOC(=O)N1CCCC2CN(c3cc(O)c4nc5c6c7c8c(C)c(O)c6c(=O)c(c-5oc4c3)NC(=O)C(C)=CC=CC(C)C(O)C(C)C(O)C(C)C(O)C(C)C(OC)C=COC(C)(O8)C7=O)CC21 (stereo not shown) [Compound 148] | 2 µg/mL (≈ 2.09 µM) | 8 µg/mL (≈ 8.38 µM) | 0.008 µg/mL (≈ 0.00838 µM) | 0.5 µg/mL (≈ 0.524 µM) | 0.00012 µg/mL (≈ 0.000126 µM)
23 | COC1C=COC2(C)Oc3c(C)c(O)c4c(=O)c(c5oc6cc(N7CC8CCCN(C(C)=O)C8C7)cc(O)c6nc-5c4c3C2=O)NC(=O)C(C)=CC=CC(C)C(O)C(C)C(O)C(C)C(OC(C)=O)C1C (stereo not shown) [Compound 149] | 1 µg/mL (≈ 1.03 µM) | >8 µg/mL | 0.008 µg/mL (≈ 0.00827 µM) | 0.25 µg/mL (≈ 0.259 µM) | 0.002 µg/mL (≈ 0.00207 µM)
